This passage reports IC50 results from BindingDB's records for patent US12509446 (Rottapharm Biotech, 2025).

In experiment [1] the target is Vascular endothelial growth factor receptor 2 (Homo sapiens, UniProt P35968). As to the kind of experiment: In Vitro Kinase Activity Assay. The protocol:
Table 12: The VEGFR2 kinase inhibitory activity of representative examples of compounds of Formula (I) assays was evaluated in Eurofins Cerep (France). The concentration range of the inhibitors under investigation was from 10−8 M up to 10−5 M final concentration. Some compounds were re-tested in a concentration-range starting from 10−9 M. The results are expressed as a percent of control activity (in the absence of test compound) and the IC50 values were determined by non-linear regression analysis of the inhibition/concentration curves generated with mean replicate values.

Experiment [2] concerns the target Tyrosine-protein kinase Fyn (Homo sapiens, UniProt P06241). As to the kind of experiment: In Vitro Kinase Activity Assay. As for the experimental part:
Table 11: The Fyn kinase inhibitory activity of representative examples of compounds of Formula (1) was evaluated by Z′-LYTE™ Kinase Assay Platform (Invitrogen). Compounds were evaluated towards active Fyn (full length active, molecular weight 87.1 kDa; Invitrogen). […] Samples representing the 0% inhibition (or total enzymatic activity) were in the presence of compound diluent (1% DMSO final in Reaction Buffer 50 mMHepes, 10 mM MgCl2, 1 mM EGTA, 0.01% Brij-35, pH 7.5). The kinase reaction was carried out in a total volume of 10 μl, for 60 minutes at 25° C. The 0% Phosphorylation (i.e. no ATP) and 100% Phosphorylation Assay Controls, included in each plate, allowed to calculate the percent phosphorylation achieved in the specific reaction well. Results are expressed as percentage of inhibition and the IC50 values were calculated by non-linear curve fitting using GraphPad™ Prism software (version 6 for Windows).

A value given as a limit tells only on which side of the number the result lay.

Sequence of Tyrosine-protein kinase Fyn (P06241 whole entry): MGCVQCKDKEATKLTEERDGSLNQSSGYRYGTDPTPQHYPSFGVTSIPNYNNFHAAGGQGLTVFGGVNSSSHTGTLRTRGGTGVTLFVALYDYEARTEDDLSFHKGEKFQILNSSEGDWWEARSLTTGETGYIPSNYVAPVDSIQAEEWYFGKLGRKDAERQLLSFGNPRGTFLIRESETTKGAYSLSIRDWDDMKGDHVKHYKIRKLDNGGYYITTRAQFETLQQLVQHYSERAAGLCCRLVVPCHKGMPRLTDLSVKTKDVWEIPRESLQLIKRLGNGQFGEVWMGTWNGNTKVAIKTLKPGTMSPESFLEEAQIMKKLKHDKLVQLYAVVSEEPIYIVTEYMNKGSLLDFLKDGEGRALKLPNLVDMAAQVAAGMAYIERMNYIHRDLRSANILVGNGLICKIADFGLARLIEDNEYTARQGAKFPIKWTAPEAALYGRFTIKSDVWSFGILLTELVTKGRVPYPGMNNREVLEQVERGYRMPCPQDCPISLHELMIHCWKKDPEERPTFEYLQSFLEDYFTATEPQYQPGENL
Sequence of Vascular endothelial growth factor receptor 2 (P35968 whole entry): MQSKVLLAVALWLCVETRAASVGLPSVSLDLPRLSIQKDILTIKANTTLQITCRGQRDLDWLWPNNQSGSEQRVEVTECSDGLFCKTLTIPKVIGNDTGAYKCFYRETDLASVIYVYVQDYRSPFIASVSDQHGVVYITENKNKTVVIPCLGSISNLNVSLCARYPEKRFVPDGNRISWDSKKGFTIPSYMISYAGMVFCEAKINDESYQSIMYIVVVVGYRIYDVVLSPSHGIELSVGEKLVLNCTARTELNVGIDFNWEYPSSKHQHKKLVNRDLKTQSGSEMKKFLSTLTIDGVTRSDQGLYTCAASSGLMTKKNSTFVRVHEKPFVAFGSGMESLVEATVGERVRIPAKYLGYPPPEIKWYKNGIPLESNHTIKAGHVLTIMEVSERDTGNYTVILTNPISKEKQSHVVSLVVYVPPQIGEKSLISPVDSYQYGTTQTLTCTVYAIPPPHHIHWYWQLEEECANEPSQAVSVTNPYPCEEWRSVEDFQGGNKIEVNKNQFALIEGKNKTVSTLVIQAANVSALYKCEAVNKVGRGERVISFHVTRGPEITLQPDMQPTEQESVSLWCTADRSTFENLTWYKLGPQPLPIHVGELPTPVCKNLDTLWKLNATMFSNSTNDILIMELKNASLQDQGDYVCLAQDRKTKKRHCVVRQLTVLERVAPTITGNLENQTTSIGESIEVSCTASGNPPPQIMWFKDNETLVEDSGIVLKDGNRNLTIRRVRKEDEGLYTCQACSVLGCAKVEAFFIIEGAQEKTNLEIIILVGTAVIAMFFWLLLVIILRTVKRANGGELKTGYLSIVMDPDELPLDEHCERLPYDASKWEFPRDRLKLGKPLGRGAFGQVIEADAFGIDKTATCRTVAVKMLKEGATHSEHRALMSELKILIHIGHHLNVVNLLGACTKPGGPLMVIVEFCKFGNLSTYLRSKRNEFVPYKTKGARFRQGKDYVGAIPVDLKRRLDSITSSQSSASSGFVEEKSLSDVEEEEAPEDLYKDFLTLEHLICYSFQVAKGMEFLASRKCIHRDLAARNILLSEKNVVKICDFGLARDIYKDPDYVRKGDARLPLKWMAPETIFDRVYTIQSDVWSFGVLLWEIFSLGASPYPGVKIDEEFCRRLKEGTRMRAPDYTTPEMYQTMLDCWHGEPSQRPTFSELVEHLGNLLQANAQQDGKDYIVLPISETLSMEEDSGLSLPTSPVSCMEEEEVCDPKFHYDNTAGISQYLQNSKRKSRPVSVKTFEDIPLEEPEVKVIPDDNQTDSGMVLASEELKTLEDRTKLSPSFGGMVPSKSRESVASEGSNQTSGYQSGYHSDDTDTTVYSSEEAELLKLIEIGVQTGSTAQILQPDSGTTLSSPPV

On to `CCN1CCN(c2cc(Nc3cc(CCc4ccc(F)c(NC(=O)c5cccc(C(F)(F)F)c5)c4)n[nH]3)nc(C)n2)CC1` [US12509446, Compound 45], for which the IC50 in experiment [1] is under 10 nM; in experiment [2], 22 nM.
Take `CCN1CCN(c2cc(Nc3cc(CCc4cc(NC(=O)c5cccc(C(F)(F)F)c5)ccc4F)n[nH]3)nc(C)n2)CC1` [US12509446, Compound 29]: the IC50 in experiment [1] was under 10 nM; in experiment [2], 15 nM.
`Cc1nc(Nc2cc(CCc3ccc(F)c(NC(=O)c4cccc(C(F)(F)F)c4)c3)n[nH]2)cc(N2CC(O)C2)n1` [US12509446, Compound 46]: the half-maximal inhibitory concentration (IC50) is under 10 nM in experiment [1] and 18 nM in experiment [2].
For the molecule `Cc1nc(Nc2cc(CCc3ccc(F)c(NC(=O)c4cccc(C(F)(F)F)c4)c3)n[nH]2)cc(N2CCN(CCO)CC2)n1` [US12509446, Compound 44], the IC50 was under 10 nM in experiment [1] and 8 nM in experiment [2].
As to `Cc1ccc(NC(=O)c2cccc(S(C)(=O)=O)c2)cc1CCc1cc(Nc2cnccn2)[nH]n1` [US12509446, Compound 1], the values for the IC50 in experiment [1] and in experiment [2] were under 10 nM and 36 nM, respectively.
For `Cc1nc(Nc2cc(CCc3cc(NC(=O)c4cccc(C(F)(F)F)c4)ccc3F)n[nH]2)cc(N2CC(O)C2)n1` [US12509446, Compound 31], the IC50 turned out to be 18 nM in experiment [1] and 10 nM in experiment [2].
For the molecule `Cc1nc(Nc2cc(CCc3cc(NC(=O)c4cccc(C(F)(F)F)c4)ccc3F)n[nH]2)cc(N2CCN(CCO)CC2)n1` [US12509446, Compound 30], the 50% inhibitory concentration (IC50) in experiment [1] was under 10 nM; in experiment [2], 6 nM.
